Consider three molecules from publication PMC10613692, “Central and peripheral analgesic active components of triterpenoid saponins from Stauntonia chinensis and their action mechanism” (Frontiers in Pharmacology, 2023).

Assay type in all cases: cell-based
Assay [1] has as its target T1, transient receptor potential vanilloid 1 (TRPV1) (Rattus norvegicus, UniProt O35433).
T1 construct: native channel in rat DRG neurons
As to the kind of experiment: whole-cell patch clamp of capsaicin-induced TRPV1 currents in rat DRG neurons; capsaicin concentration curves with and without C9. From the text:
whole-cell patch clamp of capsaicin-induced TRPV1 currents in rat DRG neurons; capsaicin concentration curves with and without C9 on transient receptor potential vanilloid 1 (TRPV1) | Concentration dependence curve of the inhibition on CAP-induced TRPV1 currents of C9.
For orientation: Patch clamp records ionic current or voltage across a cell membrane.

Assay [2] deals with T1, transient receptor potential vanilloid 1 (TRPV1). Nature of the assay: whole-cell patch clamp in rat DRG neurons, capsaicin concentration-response ([…]).
For assay [3] the target is unchanged. Nature of the assay: whole-cell patch clamp of capsaicin-induced currents in rat DRG neurons, single concentration ([…]).

T1 sequence (O35433 whole entry): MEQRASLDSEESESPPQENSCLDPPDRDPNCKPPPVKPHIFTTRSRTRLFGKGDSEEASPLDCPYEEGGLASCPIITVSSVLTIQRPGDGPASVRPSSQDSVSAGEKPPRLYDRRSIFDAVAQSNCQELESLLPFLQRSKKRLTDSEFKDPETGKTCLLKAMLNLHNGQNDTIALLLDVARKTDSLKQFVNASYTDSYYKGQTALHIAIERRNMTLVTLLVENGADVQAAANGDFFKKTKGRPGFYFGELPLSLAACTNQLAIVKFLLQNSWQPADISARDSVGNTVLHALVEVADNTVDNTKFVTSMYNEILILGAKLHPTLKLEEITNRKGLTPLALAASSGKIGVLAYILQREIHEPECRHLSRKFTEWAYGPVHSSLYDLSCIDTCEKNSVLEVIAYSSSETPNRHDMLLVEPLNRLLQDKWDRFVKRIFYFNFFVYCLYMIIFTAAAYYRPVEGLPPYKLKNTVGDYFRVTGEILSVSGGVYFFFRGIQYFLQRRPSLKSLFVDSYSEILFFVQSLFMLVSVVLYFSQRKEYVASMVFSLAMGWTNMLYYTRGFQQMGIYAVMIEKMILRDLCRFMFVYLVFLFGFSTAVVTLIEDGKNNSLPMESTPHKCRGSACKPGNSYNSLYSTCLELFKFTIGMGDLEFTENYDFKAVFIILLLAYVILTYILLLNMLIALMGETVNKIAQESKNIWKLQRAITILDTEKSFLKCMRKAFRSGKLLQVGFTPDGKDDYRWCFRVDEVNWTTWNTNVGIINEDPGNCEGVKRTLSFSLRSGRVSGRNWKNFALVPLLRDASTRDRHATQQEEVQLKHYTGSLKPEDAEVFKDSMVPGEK

A word on the EC50: it is the concentration needed to bring the measured effect to its halfway point. For `C[C@@H]1O[C@@H](O[C@H]2[C@H](O)[C@@H](O)[C@H](OC[C@H]3O[C@@H](OC(=O)[C@]45CCC(C)(C)C[C@H]4C4=CC[C@@H]6[C@@]7(C)CC[C@H](O[C@@H]8OC[C@H](O)[C@H](O)[C@H]8O)[C@@](C)(CO)[C@@H]7CC[C@@]6(C)[C@]4(C)CC5)[C@H](O)[C@@H](O)[C@@H]3O)O[C@@H]2CO)[C@H](O)[C@H](O)[C@H]1O` [Compound 9, hederasaponin D], in assay [1], a half-maximal effect (EC50) was put at 36.9 ± 4.4 nM.
For the molecule `COc1cc(CNC(=O)CCCC/C=C/C(C)C)ccc1O` [capsaicin], the “whole-cell patch clamp in rat DRG neurons, capsaicin concentration-response (0.0)” value in assay [2] is given as “Concentration dependent curves of TRPV1 currents induced by CAP in the presence or absence of C9”.
Turning to `Oc1cc2c(cc1O)CN(C(=S)NCCc1ccc(Cl)cc1)CCC2` [capsazepine], in assay [3], the “whole-cell patch clamp of capsaicin-induced currents in rat DRG neurons, single” value was “The recorded current was almost completely suppressed by capsazepine (CPZ), proving that it was the CAP-induced TRPV1 current”.
